{"source": "patent US6417220B2", "about": "“Mitochondrial membrane stabilizer” (Daiichi Pharmaceutical Co., Ltd., priority 1996, dated 2002)", "key": {"NG108-15 cells [1]": {"test_system": "NG108-15 cells", "assay": "Determination of the intracellular Ca2+ concentration (fura2-AM fluorescence ratio)", "assay_type": "cell-based", "excerpt": "The present invention will be explained more specifically by referring to the following examples. However, the scope of the present invention is not limited to these examples. The test procedure in the examples was according to the method of Hare et al. (Hare, M. F., et. al., JPET, 266, pp.1626-1635, 1993) unless otherwise indicated. In the examples, “Nefiracetam” means 2-oxo-1-pyrrolidinylacetic acid 2,6-dimethylanilide, and “Ro5-4864” means the mitochondrias benzodiazepine receptor agonist, (7-chloro-5-(4-chlorophenyl)-1,3-dihydro-1-methyl-2H-1,4-benzodiazepin-2-one: TIPS, December, pp. 506-511, 1986).\nChanges in the intracellular Ca^2+ concentration caused by Ro5-4864 was studied. Cultured cells (NG108-15 cells: nerve cell x neuroglia cell hybrid) were cultured in DMEM culture medium, and further cultured in Flexiperm Disc (Heraeus Biotechnology) provided with a cover glass and used in the following described below. The cultured NG 108-15 cells were added with Ro5-4864 at final concentration of […]. A fluorescent remedicament, fura2-AM (1-(6-amino-2-(5-carboxy-2-oxazoly-5-benzofuranyloxy)-2-(2-amino-5-methylphenoxy)-ethane-N,N,N′,N′-teraacetic acid, pentaacetoxymethyl ester, Dojindo Laboratories) was dissolved in DMSO (Dimethylsulfoxide, Nakarai Chemical) to prepare a 1 mM solution, and this solution was diluted 200 times with HBS (Herpes-saline solution, composition: NaCl; 130 mM; KCl: 5.4 mM; CaCl2: 1.8 mM; MgSO4: 0.8 mM; D-glucose: 20 mM; Na^+-HEPES; 20 mM, pH 7.3) to prepare a fluorescent reagent solution (final concentration of fra2-AM: 5 μM).\nFor the determination of intracellular Ca^2+ concentrations, the culture medium was removed from the Petri dish where the NG108-15 cells were cultured, and the dish was washed twice with HBS. The cultured cells were added with the 5 μM fura2-AM solution prepared above, put in a carbon dioxide gas incubator for 30 minutes, and then washed with HBS five times to remove the added fura2-AM solution. Finally, 1 ml of HBS was added to the Flexiperm, and the intracellular Ca^2+ concentration was measured by ARGUS-50/CA (Hamamatsu Photonics). According to this measurement, the fluorescence of Ca^2+-bound type fura-2 emitted at an excitation wavelength of 340 nm and the fluorescence of Ca^2+-free type fura-2 emitted at an excitation wavelength of 380 nm were measured as a pair at a constant interval for the fura-2 loaded cultured cells, and their relative ratio (ratio of fluorescence intensity) was used to analyze the intracellular Ca^2+ dynamics (concentration). An increase in the 340 nm excited fluorescence due to the binding of intracellular calcium ions to the fura2-AM, and a decrease in the 380 nm excited fluorescence were recorded by imaging and the ratio of fluorescence intensity between the fluorescence images was obtained."}, "NG108-15 cells [2]": {"test_system": "NG108-15 cells", "assay": "Determination of the mitochondrial membrane potential (Rhodamine 123 fluorescence)", "assay_type": "cell-based"}, "[3]": {"conditions": "male mouse, p.o.; cited from earlier work"}}, "data": [{"smiles": "CN(C(=O)Cn1c(=O)n2c(Br)c(-c3cccc(Cl)c3)nc2c2ccccc21)c1ccccc1", "note": "[NCS-1044-90, 2-(3-Chlorophenyl)-3-bromo-6-(N-methyl-N-phenylacetamido)-5-oxo-5,6-dihydroimidazo[1,2-c]quinazoline]", "values": [{"measurement": "change in intracellular Ca2+ concentration on addition of Ro5-4864", "setting": "NG108-15 cells [1]; Ro5-4864 100 μM applied to cells treated beforehand with NCS-1044-90 10 μM, FIG. 9", "result": "only a very small elevation"}, {"measurement": "change in intracellular mitochondrial membrane potential", "setting": "NG108-15 cells [2]; NCS-1044-90 10 μM alone, FIG. 10", "result": "No change"}, {"measurement": "change in intracellular mitochondrial membrane potential on addition of Ro5-4864", "setting": "NG108-15 cells [2]; Ro5-4864 50 μM added to cells treated with NCS-1044-90 10 μM, FIG. 10", "result": "only a very small elevation"}, {"measurement": "change in intracellular mitochondrial membrane potential on further addition of Ro5-4864", "setting": "NG108-15 cells [2]; further treatment with Ro5-4864 100 μM, cells treated with NCS-1044-90 10 μM, FIG. 10", "result": "slight and gentle elevation"}]}, {"smiles": "Cc1cccc(C)c1NC(=O)CN1CCCC1=O", "note": "[Nefiracetam, 2-oxo-1-pyrrolidinylacetic acid 2,6-dimethylanilide]", "values": [{"measurement": "acute toxicity", "setting": "[3]", "result": "2,005 mg/kg"}, {"measurement": "change in intracellular Ca2+ concentration", "setting": "NG108-15 cells [1]; Nefiracetam 50 μM alone, after washing, FIG. 5", "result": "no change"}, {"measurement": "change in intracellular Ca2+ concentration on addition of Ro5-4864", "setting": "NG108-15 cells [1]; Ro5-4864 25 μM in the presence of Nefiracetam 50 μM, FIG. 5", "result": "almost no change"}, {"measurement": "change in mitochondrial membrane potential", "setting": "NG108-15 cells [2]; Nefiracetam 50 μM alone, FIG. 6", "result": "no change"}, {"measurement": "change in mitochondrial membrane potential on addition of Ro5-4864", "setting": "NG108-15 cells [2]; Ro5-4864 25 μM in the presence of Nefiracetam 50 μM, FIG. 6", "result": "almost no change"}, {"measurement": "depolarizing effect of Ro5-4864 on mitochondrial membranes", "setting": "NG108-15 cells [2]; Ro5-4864 50 μM in the presence of Nefiracetam, FIG. 6", "result": "weak"}]}, {"smiles": "CN1C(=O)CN=C(c2ccc(Cl)cc2)c2cc(Cl)ccc21", "note": "[Ro5-4864, 7-chloro-5-(4-chlorophenyl)-1,3-dihydro-1-methyl-2H-1,4-benzodiazepin-2-one]", "values": [{"measurement": "change in intracellular Ca2+ concentration", "setting": "NG108-15 cells [1]; Ro5-4864 25 μM alone, FIG. 5, first peak", "result": "elevation"}, {"measurement": "change in intracellular Ca2+ concentration", "setting": "NG108-15 cells [1]; Ro5-4864 50 μM alone, FIG. 7, first peak", "result": "elevation"}, {"measurement": "change in intracellular Ca2+ concentration", "setting": "NG108-15 cells [1]; Ro5-4864 50 μM applied after bradykinin and caffeine treatment (endoplasmic reticulum Ca2+ depleted), FIG. 3", "result": "markedly elevated"}, {"measurement": "change in intracellular Ca2+ concentration", "setting": "NG108-15 cells [1]; Ro5-4864 alone, FIG. 1", "result": "sharply increases"}, {"measurement": "change in mitochondrial membrane potential", "setting": "NG108-15 cells [2]; Ro5-4864 50 μM alone, FIG. 2", "result": "remarkably decreased"}, {"measurement": "change in mitochondrial membrane potential", "setting": "NG108-15 cells [2]; Ro5-4864 50 μM applied after caffeine and bradykinin, FIG. 4", "result": "remarkable decrease"}]}, {"smiles": "Cn1c(=O)c2c(ncn2C)n(C)c1=O", "note": "[caffeine, reference compound]", "values": [{"measurement": "change in mitochondrial membrane potential", "setting": "NG108-15 cells [2]; caffeine 10 μM and bradykinin 1 μM applied, FIG. 4", "result": "no alteration"}]}]}
